These results are taken from US10105357B2, “Indication of antibiotic drugs for preparation of cancer inhibition pharmaceutical composition” (LAUNX BIOMEDICAL CO., LTD., priority 2014, dated 2018).

SMILES strings stand for the structures.

Holding throughout (assay type): cell-based, human
One assay deals with cancer cell lines. In words: Cell viability analysis (WST-1) on cancer cell lines. To be noted: drug 10 μM, 72 hours, WST-1; Table 3. On the technique in general: Tetrazolium dyes change colour on reduction, which living cells bring about.
The subject of assay [1] is HI650 (Lung Adenocarcinoma). In words: Cell viability analysis, lung cancer HI650. Particulars: Homo sapiens, NCI-H1650, 72 h, read-out: cell viability (survival rate), H1650, drug 10 μM, 72 hours, WST-1, OD450 nm.
For assay [2], the system named is A549 (Lung Adenocarcinoma). In words: Cell viability analysis, lung cancer A549. To be noted: Homo sapiens, A549, 72 h, read-out: cell viability (survival rate), A549, drug 10 μM, 72 hours, WST-1, OD450 nm.
The subject of assay [3] is AGS (Gastric Adenocarcinoma). In words: Cell viability analysis, gastric cancer AGS. Particulars: Homo sapiens, 72 h, read-out: cell viability (survival rate), AGS, drug 10 μM, 72 hours, WST-1, OD450 nm.
Assay [4] relates to MKN-45 (Gastric Adenocarcinoma). Kind of assay: Cell viability analysis, gastric cancer MKN-45. Particulars: Homo sapiens, MKN-45, 72 h, read-out: cell viability (survival rate), MKN-45, drug 10 μM, 72 hours, WST-1, OD450 nm.
Assay [5] relates to HepG2 (Hepatocellular Carcinoma). Kind of assay: Cell viability analysis, hepatic cancer HepG2. Particulars: Homo sapiens, HepG2, 72 h, read-out: cell viability (survival rate), HepG2, drug 10 μM, 72 hours, WST-1, OD450 nm.
Assay [6] concerns LoVo (Colorectal Adenocarcinoma). In words: Cell viability analysis, colon cancer LoVo. To be noted: Homo sapiens, LoVo, 72 h, read-out: cell viability (survival rate), LoVo, drug 10 μM, 72 hours, WST-1, OD450 nm.
The subject of assay [7] is A375 (Amelanotic Melanoma). In words: Cell viability analysis, skin cancer A375. Particulars: Homo sapiens, A-375, 72 h, read-out: cell viability (survival rate), A375, drug 10 μM, 72 hours, WST-1, OD450 nm.
Assay [8] relates to HeLa (Cervix Adenocarcinoma). In words: Cell viability analysis, cervical cancer HeLa. Particulars: Homo sapiens, HeLa, 72 h, read-out: cell viability (survival rate), HeLa, drug 10 μM, 72 hours, WST-1, OD450 nm.
For assay [9], the system named is PC3 (p53−) (Prostate Adenocarcinoma). In words: Cell viability analysis, prostate cancer PC3. Particulars: Homo sapiens, 72 h, read-out: cell viability (survival rate), PC3, drug 10 μM, 72 hours, WST-1, OD450 nm.
For assay [10], the system named is TSGH-8301 (Urinary Bladder Carcinoma). In words: Cell viability analysis, bladder cancer TSGH-8301. To be noted: Homo sapiens, 72 h, read-out: cell viability (survival rate), TSGH, drug 10 μM, 72 hours, WST-1, OD450 nm.
The test system of assay [11] is MCF7 (Mammary Gland, Adenocarcinoma). Kind of assay: Cell viability analysis, breast cancer MCF7. To be noted: Homo sapiens, MCF7, 72 h, read-out: cell viability (survival rate), MCF7, drug 10 μM, 72 hours, WST-1, OD450 nm.
The subject of assay [12] is HL-60 (Acute Promyelocytic Leukemia). Kind of assay: Cell viability analysis, leukemia HL-60. To be noted: Homo sapiens, HL-60, 72 h, read-out: cell viability (survival rate), HL-60, drug 10 μM, 72 hours, WST-1, OD450 nm.

What is called viability is a read-out of living cells in per cent, often relative to untreated cells. Consider `C[C@@H]1CN(c2c(F)c(N)c3c(=O)c(C(=O)O)cn(C4CC4)c3c2F)C[C@H](C)N1` [Sparfloxacin], for which, in the assay with cancer cell lines, the “inhibition effect on different cancer cell lines” value is on record as “significant inhibition effect”. Further, the viability at 10 µM is 88.5% in assay [1]; 86.5% in [2]; 79.9% in assay [3]; 57.5% in assay [4]; 97.6% in assay [5]; 97% in [6]. In addition, the viability at 10 µM is 82.6% in [7]; 88.3% in [8]; 50.1% in [9]; 68.1% in [10]; 56.3% in assay [11]; 99.3% in assay [12].

Take `CC(=O)N1CCN(c2ccc(OCC3COC(Cn4ccnc4)(c4ccc(Cl)cc4Cl)O3)cc2)CC1` (stereo not shown) [Ketoconazole]: the “inhibition effect on different cancer cell lines” value with cancer cell lines is recorded as “significant inhibition effect”. In addition, the viability at 10 µM amounted to 46.1% in [1]; 75.7% in [2]; 65.7% in assay [3]; 77% in [4]; 88.7% in [5]; 90.3% in [6]. Also, the viability at 10 µM in assay [7] was determined as 49.2%; in [8], 84.3%; in assay [9], 80.1%; in assay [10], 107%; in assay [11] it was 118%; in [12], 88.3%.

As to `O=C(NC(Cc1cc(=O)[nH]c2ccccc12)C(=O)O)c1ccc(Cl)cc1` (stereo not shown) [Rebamipide], in the assay on cancer cell lines, the “inhibition effect on different cancer cell lines” value was “significant inhibition effect”. The viability at 10 µM in [1] came out at 80.4%; in assay [2], 28%; in assay [3], 89.6%; in [4], 97.4%; in assay [5] it was 95.3%; in assay [6], 84.9%. Moreover, the viability at 10 µM in [7] was 81.1%; in assay [8] it was 77.4%; in assay [9], 82.2%; in [10], 105%; in assay [11] it was 39.1%; in assay [12] it was 100%.

For `C[C@H]1[C@H](NC(=O)/C(=N\OC(C)(C)C(=O)O)c2csc(N)n2)C(=O)N1S(=O)(=O)O` [Aztreonam (Azactam, Cayston), Aztreonam], the “inhibition effect on different cancer cell lines” value in the assay on cancer cell lines is “significant inhibition effect”. Further, the viability at 10 µM in assay [1] was determined as 48.6%; in assay [2], 56.9%; in assay [3] it was 40.9%; in assay [4], 60.5%; in assay [5], 111%; in assay [6], 76.3%. In addition, the viability at 10 µM in [7] came to 88.6%; in assay [8], 87.2%; in assay [9] it was 55.2%; in assay [10], 52.3%; in assay [11], 68.6%; in assay [12] it was 113%.
